The source of these data is ChEMBL document CHEMBL1136948, “Non-nucleoside inhibitors of HCV NS5B polymerase. Part 1: Synthetic and computational exploration of the binding modes of benzothiadiazine and 1,4-benzothiazine HCV NS5b polymerase inhibitors” (Bioorg Med Chem Lett, 2009).

Data set [1] concerns Hepatitis C virus. Nature of the data set: Antiviral activity against HCV 1b replication in human 2209-23 cells assessed as [3H]thymidine incorporation into cellular DNA by scintillation proximity assay. Type of data set: functional, organism-based, Hepacivirus hominis. The note with it: genotype 1b.
The test system of data set [2] is Hepatitis C virus. Nature of the data set: Inhibition of HCV 1b J4 NS5B Cdelta 21polymerase over expressed in Escherichia coli assessed as [alpha33P]UTP incorporation. Details: species or system Hepatitis C virus subtype 1b.
The subject of data set [3] is Hepatitis C virus. In words: Inhibition of HCV 1b NS5B polymerase. Type of data set: organism-based, Hepatitis C virus subtype 1b.
Data set [4] concerns Hepatitis C virus. Nature of the data set: Antiviral activity against HCV in human HuH7 cells by replicon assay. Type of data set: functional, organism-based, Hepacivirus hominis. The note with it: Huh-7.
Data set [5] in a line: Apparent permeability across human Caco-2 cells after 7 days. Type of data set: ADME, cell-based.
A short description of data set [6]: Apparent permeability from basolateral to apical side of human Caco-2 cells after 21 days.
Data set [7] can be described thus: Apparent permeability from apical to basolateral side of human Caco-2 cells after 21 days.

A value given as a limit tells only on which side of the number the result lay.

`O=c1c(C2=Nc3ccccc3S(=O)(=O)N2)c(O)c2cc(F)ccc2n1CCC1CC1`: the EC50 in data set [1] came to 0.26 µM. Also, the IC50 was determined as 0.01 µM in data set [2], 0.1 µM in data set [3] and 0.04 µM in data set [4].
With `O=S1(=O)C=C(c2nc(Cc3ccc(F)cc3)c3ccccc3c2O)Nc2ccccc21`, the EC50 in data set [1] amounted to 7.6 µM. In addition, in data set [3], the IC50 is 6.9 µM.
As to `O=c1c(C2=CS(=O)(=O)c3ccccc3N2)c(O)c2ccccc2n1Cc1ccc(F)cc1`, the EC50 in data set [1] came to 0.79 µM. Half-maximal inhibition in data set [3] (IC50) required 0.72 µM. The Papp in data set [5] was 4.4 ×10⁻⁶ cm/s.
`O=c1c(C2=CS(=O)(=O)c3ccccc3N2)c(O)c2cccnc2n1CCC1CC1` had an IC50 in data set [3] of 2.7 µM.
Still for that read-out and setting: as for `CN1C(c2nc(Cc3ccc(F)cc3)c3ccccc3c2O)=CS(=O)(=O)c2ccccc21`, the figure is 19.5 µM.
For the molecule `Cc1ccc2c(c1)c(O)c(C1=CS(=O)(=O)c3ccccc3N1)c(=O)n2Cc1ccc(F)cc1`, in data set [1], the EC50 was 1.5 µM. The same molecule had an IC50 in data set [3] of 1.5 µM.
As to `CC(C)CCn1c(=O)c(C2=NS(=O)(=O)c3ccccc3N2)cc2ccccc21`, in data set [3], inhibition was half-maximal at 682 µM (IC50).
The same measure, in the same setting: as for `CC(C)CCn1cc(C2=NS(=O)(=O)c3ccccc3N2)c(=O)c2ccccc21`, the figure is over 1000 µM; as for `N#Cc1cccc(Cn2c(=O)c(C3=CS(=O)(=O)c4ccccc4N3)c(O)c3cc(F)ccc32)c1`, 37 µM.
As to `O=c1c(C2=CS(=O)(=O)c3ccccc3N2)c(O)c2cc(F)ccc2n1Cc1ccc(F)cc1`, the EC50 in data set [1] was 0.7 µM. In data set [3], this molecule yielded an IC50 of 0.7 µM.
Turning to `CC(C)CCn1c(=O)c(C2=NS(=O)(=O)c3ccccc3N2)c(O)c2ccccc21`, the EC50 in data set [1] was 0.87 µM. In addition, the IC50 in data set [2] was 0.03 µM; in data set [3], 1.1 µM.
On to `Cc1cc(Cn2c(=O)c(C3=CS(=O)(=O)c4ccccc4N3)c(O)c3cc(F)ccc32)ccc1F`, for which the concentration giving a half-maximal response (EC50) in data set [1] was 0.8 µM. The Papp B→A in data set [6] was found to be 5.3 ×10⁻⁶ cm/s. Also, the Papp A→B in data set [7] was found to be 0.5 ×10⁻⁶ cm/s. Further, the IC50 in data set [3] amounted to 0.4 µM.
As to `O=c1c(C2=CS(=O)(=O)c3ccccc3N2)c(O)c2ccccc2n1Cc1ccccc1F`, in data set [1], the EC50 is 46 µM. In data set [3], this molecule had an IC50 of 17.5 µM.
Taken in the same sequence, the figures for `O=c1c(C2=CS(=O)(=O)c3ccccc3N2)c(O)c2cc(F)ccc2n1Cc1ccc(F)c(F)c1` were 1.5 µM and 1.2 µM.
For `CC(C)CCn1c(=O)c(C2=CS(=O)(=O)c3ccccc3N2)c(O)c2cc(F)cnc21`, in that order: 8.6 µM and 0.83 µM.
Consider `Cc1ccc2c(c1)c(O)c(C1=CS(=O)(=O)c3ccccc3N1)c(=O)n2CCC1CC1`, for which the concentration for a half-maximal effect (EC50) in data set [1] was determined as 0.64 µM. 1.3 µM corresponded to half-maximal inhibition in data set [3] (IC50). In addition, the Papp in data set [5] came out at 9.4 ×10⁻⁶ cm/s.
With `O=c1c(C2=CS(=O)(=O)c3ccccc3N2)c(O)c2cc(Cl)ccc2n1CCC1CC1`, in data set [1], the EC50 was found to be 1.6 µM. The IC50 in data set [3] came to 2.4 µM.
With `CC(C)CCn1c(=O)c(C2=CS(=O)(=O)c3ccccc3N2)c(O)c2ccccc21`, the EC50 in data set [1] turned out to be 2.5 µM. Besides, 2.3 µM corresponded to half-maximal inhibition in data set [3] (IC50).
The molecule `Cc1c(-c2ccccc2)c(O)c(C2=CS(=O)(=O)c3ccccc3N2)c(=O)n1CCC(C)C` came in with an IC50 in data set [3] of 87 µM.
Regarding `O=c1c(C2=CS(=O)(=O)c3ccccc3N2)c(O)c2cc(F)ccc2n1CCC1CC1`, the EC50 in data set [1] came to 1.2 µM. Also, the Papp B→A in data set [6] turned out to be 7.1 ×10⁻⁶ cm/s. Moreover, the Papp A→B in data set [7] was 0.6 ×10⁻⁶ cm/s. The molecule also yielded an IC50 in data set [3] of 1.1 µM. The Papp in data set [5] worked out at 6.4 ×10⁻⁶ cm/s.
In the case of `O=S1(=O)N=C(c2nc(Cc3ccc(F)cc3)c3ccccc3c2O)c2ccccc21`, in data set [1], the EC50 was determined as 0.44 µM. Besides, 2.2 µM corresponded to half-maximal inhibition in data set [3] (IC50).
As for `CC(C)CCn1c(=O)c(C2=CS(=O)(=O)c3ccccc3N2)cc2ccccc21`, in data set [3], half-maximal inhibition (IC50) was put at 868 µM.
As to `CC(C)CCn1c(=O)c(C2=CS(=O)(=O)c3ccccc3N2)c(O)c2cccnc21`, in data set [3], inhibition was half-maximal at 1.4 µM (IC50).
As to `COc1ccc2c(c1)c(O)c(C1=CS(=O)(=O)c3ccccc3N1)c(=O)n2CCC1CC1`, in data set [1], the EC50 came to 7.1 µM. In addition, the midpoint of inhibition in data set [3], the IC50, lay at 3.8 µM.
